Values of other authors, collected in patent US20120308672A1, “COMPOSITIONS FOR HAIR AND BODY APPLICATION” (EQYSS GROOMING PRODUCTS, priority 2004, published 2012).

System: mosquitoes
Settings: topical repellent

## CCN(CC)C(=O)c1cccc(C)c1 [DEET, N,N,-diethyl-m-toluamide]
  protection against mosquitoes: effective and long-lasting protection
